In PubChem BioAssay (NCI):
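Protocol summary: plate cells (96-well), add compound at 5 concentrations, incubate 48 h, interpolate endpoints linearly. The concentration for full growth arrest is given as TGI.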

Legend:
Test in all cases: DTP human tumour cell line panel, 48 h
COLO 205 colon = system: COLO 205 colon
HOP-62 NSCLC = system: HOP-62 NSCLC
NCI-H23 lung = system: NCI-H23 lung
SF-268 CNS = system: SF-268 CNS
T-47D breast = system: T-47D breast
UACC-62 melanoma = system: UACC-62 melanoma
DLD-1 colon = system: DLD-1 colon
DMS 114 small cell lung = system: DMS 114 small cell lung
DMS 273 small cell lung = system: DMS 273 small cell lung
HOP-18 NSCLC = system: HOP-18 NSCLC
KM20L2 colon = system: KM20L2 colon
LXFL 529 NSCLC = system: LXFL 529 NSCLC
M19-MEL melanoma = system: M19-MEL melanoma
SNB-78 CNS = system: SNB-78 CNS

Row | SMILES | TGI (COLO 205 colon) | TGI (HOP-62 NSCLC) | TGI (NCI-H23 lung) | TGI (SF-268 CNS) | TGI (T-47D breast) | TGI (UACC-62 melanoma) | TGI (DLD-1 colon) | TGI (DMS 114 small cell lung) | TGI (DMS 273 small cell lung) | TGI (HOP-18 NSCLC) | TGI (KM20L2 colon) | TGI (LXFL 529 NSCLC) | TGI (M19-MEL melanoma) | TGI (SNB-78 CNS)
1 | CCOC(=O)c1cc(-n2nnc3ccccc32)cn1C | > 10 µM | > 10 µM | > 10 µM | > 10 µM | > 10 µM | > 10 µM | – | – | – | – | – | – | – | –
2 | NS(=O)(=O)c1nnc(NC(=O)C23CC4CC(CC(C4)C2)C3)s1 | > 100 µM | > 100 µM | > 100 µM | > 100 µM | > 100 µM | > 100 µM | – | – | – | – | – | – | – | –
3 | CCOC(=O)/C=C(\C(=O)OCC)n1ccc(=O)n(Cc2cnnn2CCCCOC(C)=O)c1=O | 5.8 µM | 41.9 µM | 18.5 µM | 34.1 µM | 17.4 µM | 23.4 µM | – | – | – | – | – | – | – | –
4 | CC(O)C1(CNc2cc(Cl)nc(N)n2)CCCCC1 (configuration not stated) | > 100 µM | > 100 µM | > 100 µM | > 100 µM | > 100 µM | > 100 µM | – | – | – | – | – | – | – | –
5 | S=C1NC2=C(COc3ccccc32)C(c2ccc(Cl)cc2)N1 (configuration not stated) | 36.9 µM | 31 µM | 45.9 µM | 39.7 µM | 45 µM | 34.7 µM | – | – | – | – | – | – | – | –
6 | NC(N)=NS(=O)(=O)c1ccc(N/N=C2/CCOC2=O)cc1 | > 100 µM | 77.8 µM | > 100 µM | > 100 µM | > 100 µM | > 100 µM | – | – | – | – | – | – | – | –
7 | CCCCCCCCCCCCOP(=O)(O)OP(=O)(O)OCC1OC(n2ccc(N)nc2=O)CC1O (configuration not stated) | > 100 µM | > 100 µM | > 100 µM | > 100 µM | > 100 µM | > 100 µM | – | – | – | – | – | – | – | –
8 | Clc1cccc(-c2sc(-c3ccsc3)cc2Cc2ccsc2)c1 | > 10 µM | > 10 µM | > 10 µM | > 10 µM | > 10 µM | > 10 µM | – | – | – | – | – | – | – | –
9 | COc1cc(-c2nc3ccc(N4CCN(C)CC4)cc3[nH]2)c(OC)c2[nH]c(COC(C)=O)nc12 | > 100 µM | > 100 µM | > 100 µM | > 100 µM | > 100 µM | > 100 µM | – | – | – | – | – | – | – | –
10 | O=C(/C=C\c1cccc2ccccc12)c1ccc(F)cc1 | 35.3 µM | > 100 µM | 45.1 µM | 30.8 µM | – | 27.5 µM | 37.6 µM | 29.5 µM | 29.4 µM | 28.2 µM | 31.1 µM | 30.8 µM | 39.4 µM | 38.5 µM
11 | COc1ccc(/C(C)=N/NC(=O)c2ccncc2)c(OC)c1 | > 10 µM | > 10 µM | > 10 µM | > 10 µM | > 10 µM | > 10 µM | – | – | – | – | – | – | – | –
12 | CCCCn1c(CSc2ccc(Cl)cc2)c(C(=O)OCC)c2cc(OC)c(Br)cc21 | > 100 µM | > 100 µM | > 100 µM | > 100 µM | > 100 µM | > 100 µM | – | – | – | – | – | – | – | –
13 | O=C1CSC(c2c[nH]c3ccccc23)N1c1ccc(Cl)cc1 (configuration not stated) | > 100 µM | > 100 µM | > 100 µM | > 100 µM | > 100 µM | > 100 µM | – | – | – | – | – | – | – | –
14 | O=[N+]([O-])C(/C=C(\Cl)[N+](=O)[O-])=C1Nc2ccccc2N1 | > 100 µM | > 100 µM | > 100 µM | > 100 µM | 69 µM | > 100 µM | – | – | – | – | – | – | – | –
15 | COC(=O)/C=C\C(C#N)(C#N)N=Cc1cccc(OC)c1 | 5.06 µM | > 62.1 µM | 16.4 µM | 33.4 µM | 18.9 µM | 31.8 µM | – | – | – | – | – | – | – | –
